Values quoted from earlier work in patent US20040147490A1, “2-Amino-propanol derivatives” (priority 2001, published 2004).

Conditions: comparison substance

SMILES: CCCCCCCCCCCCC/C=C/[C@@H](O)[C@@H](N)COP(=O)(O)O [sphingosine-1 phosphate]
- negative chronotropic effects: negative chronotropic effects
